Here are results for 34 compounds from patent US20230100367A1, “METHODS OF TREATING CDGSH IRON SULFUR DOMAIN 2 INSUFFICIENCY-ASSOCIATED DISORDERS” (National Yang Ming Chiao Tung University, priority 2021, published 2023).

The test has as its system Cisd2 promoter with firefly luciferase reporter (HEK293-CISD2). The experiment in a line: Cisd2-luciferase reporter assay. The following applies: Homo sapiens; HEK293-CISD2 cells, 24 h incubation, luciferase activity. The format is cell-based. The method, then: Compounds 1-35 were tested for increasing the level of Cisd2 in human embryonic kidney cells 293 (HEK293), a transfected cell line expressing Cisd2, using the Cisd2-luciferase reporter assay as described below.
The transfected HEK293 cells stably expressed Cisd2 promoter with firefly luciferase reporter (“HEK293-CISD2”). They were kept in Dulbecco's modified Eagle's medium (“DMEM”) (Gibco, New York, N.Y.). Culture medium was supplemented with 10% heat-inactivated fetal bovine serum (“FBS”), 2 mM L-Glutamine, 1 mM sodium pyruvate, 0.1% MEM Non-Essential Amino Acids, 1 μg/ml puromycin and 1% penicillin/streptomycin (HyClone, Logan, Utah). The cells were maintained at 37° C. in an incubator (Thermo Fisher Scientific, Waltham, Mass.) with an atmosphere of 5% CO2. The stably transfected cells were seeded in 384-well plates at a density of 3×10^3 cells/well. After incubation with a tested compound at 37° C. for 24 h, ONE-Glo™ Luciferase Assay System (Promega, Madison, Wis.) was added at room temperature for 10 minutes to detect any luciferase activity. Luminescence intensity was registered using plate reader BioTek Synergy Neo2™ (Agilent, Santa Clara, Calif.).
EC50 values in this table are presented in […] classes, i.e., A: <1 μM and B: 1 μM-10 μM.
(In general: A reporter such as luciferase makes a cellular process visible.)
Turning to `Cc1ccc(NC(=O)c2sc(N)c(C#N)c2C)c(C)c1` [Compound 2, 5-Amino-4-cyano-N-(2,4-dimethylphenyl)-3-methylthiophene-2-carboxamide], the EC50 fell in the range of 1000 to 10000 nM.

Turning to `COC(=O)c1c(N)sc(C(=O)Nc2cccnc2)c1C` [Compound 3, Methyl 2-amino-4-methyl-5-(pyridin-3-ylcarbamoyl)thiophene-3-carboxylate], the EC50 was less than 1000 nM.

Take `COC(=O)c1c(N)sc(C(=O)OC(C)(C)C)c1C` [Compound 4, 2-tert-Butyl 4-methyl 5-amino-3-methylthiophene-2,4-dicarboxylate]: the EC50 was 1000 to 10000 nM.

For `CCOC(=O)c1c(N)sc(C(=O)Nc2ccc(F)cc2)c1C` [Compound 5, Ethyl 2-amino-5-[(4-fluorophenyl)carbamoyl]-4-methylthiophene-3-carboxylate], the EC50 is less than 1000 nM.

Regarding `COC(=O)c1c(N)sc(C(=O)Nc2ccc(OC)cc2)c1C` [Compound 6, Methyl 2-amino-5-[(4-methoxyphenyl)carbamoyl]-4-methylthiophene-3-carboxylate], the EC50 was less than 1000 nM.

Consider `COC(=O)c1c(N)sc(C(=O)Nc2ccccc2C)c1C` [Compound 7, Methyl 2-amino-4-methyl-5-[(2-methylphenyl)carbamoyl]thiophene-3-carboxylate], for which the EC50 is less than 1000 nM.

For `COC(=O)c1c(N)sc(C(=O)Nc2ccc(C)cc2)c1C` [Compound 8, Methyl 2-amino-4-methyl-5-[(4-methylphenyl)carbamoyl]thiophene-3-carboxylate], the EC50 was less than 1000 nM.

For the compound `COC(=O)c1c(N)sc(C(=O)Nc2ccccc2)c1C` [Compound 9, Methyl 2-amino-4-methyl-5-(phenylcarbamoyl)thiophene-3-carboxylate], the EC50 is less than 1000 nM.

Turning to `COC(=O)c1c(N)sc(C(=O)Nc2ccc(C(F)(F)F)cc2)c1C` [Compound 10, Methyl 2-amino-4-methyl-5-{-[4-(trifluoromethyl)phenyl]carbamoyl}thiophene-3-carboxylate], the EC50 was less than 1000 nM.

For `COC(=O)c1c(N)sc(C(=O)Nc2ccc(N(C)C)cc2)c1C` [Compound 11, Methyl 2-amino-5-{-[4-(dimethylamino)phenyl]carbamoyl}-4-methylthiophene-3-carboxylate], the 50% effective concentration (EC50) was less than 1000 nM.

On to `Cc1ccc(NC(=O)c2sc(N)c(C(N)=O)c2C)c(C)c1` [Compound 12, 5-Amino-N^2-(2,4-dimethylphenyl)-3-methylthiophene-2,4-dicarboxamide], for which the EC50 is less than 1000 nM.

As for `COC(=O)c1c(N)sc(C(=O)Nc2ccc(F)cc2)c1C` [Compound 13, Methyl 2-amino-5-[(4-fluorophenyl)carbamoyl]-4-methylthiophene-3-carboxylate], the EC50 is less than 1000 nM.

In the case of `Cc1ccc(NC(=O)c2sc(N)c(C(=O)OC(C)C)c2C)c(C)c1` [Compound 14, Propan-2-yl 2-amino-5-[(2,4-dimethylphenyl)carbamoyl]-4-methylthiophene-3-carboxylate], the EC50 fell in the range of 1000 to 10000 nM.

Turning to `COC(=O)c1c(N)sc(C(=O)Nc2ccc(C#N)cc2)c1C` [Compound 15, Methyl 2-amino-5-[(4-cyanophenyl)carbamoyl]-4-methylthiophene-3-carboxylate], the EC50 was less than 1000 nM.

Turning to `COC(=O)c1c(N)sc(C(=O)Nc2cccc(C)c2)c1C` [Compound 16, Methyl 2-amino-4-methyl-5-[(3-methylphenyl)carbamoyl]thiophene-3-carboxylate], the EC50 was less than 1000 nM.

Take `COC(=O)c1c(N)sc(C(=O)Nc2c(C)cc(C)cc2C)c1C` [Compound 17, Methyl 2-amino-4-methyl-5-[(2,4,6-trimethylphenyl)carbamoyl]thiophene carboxylate]: the concentration giving a half-maximal response (EC50) was in the range of 1000 to 10000 nM.

Turning to `COC(=O)c1c(N)sc(C(=O)Nc2cc(OC)c(OC)c(OC)c2)c1C` [Compound 18, Methyl 2-amino-4-methyl-5-[(3,4,5-trimethoxyphenyl)carbamoyl]thiophene-3-carboxylate], the EC50 was 1000 to 10000 nM.

For the compound `COC(=O)c1c(N)sc(C(=O)Nc2nccs2)c1C` [Compound 19, Methyl 2-amino-4-methyl-5-(1,3-thiazol-2-ylcarbamoyl)thiophene-3-carboxylate], the EC50 is less than 1000 nM.

In the case of `COC(=O)c1c(N)sc(C(=O)Nc2cccc(OC)c2)c1C` [Compound 20, Methyl 2-amino-5-[(3-methoxyphenyl)carbamoyl]-4-methylthiophene-3-carboxylate], the EC50 was less than 1000 nM.

Consider `COC(=O)c1c(N)sc(C(=O)Nc2ccc(O)cc2)c1C` [Compound 21, methyl 2-amino-5-[(4-hydroxyphenyl)carbamoyl]-4-methylthiophene-3-carboxylate], for which the EC50 was less than 1000 nM.

For the compound `COC(=O)c1cc(C(=O)Nc2ccc(C)cc2C)sc1N` [Compound 22, Methyl 2-amino-5-[(2,4-dimethylphenyl)carbamoyl]thiophene-3-carboxylate], the EC50 was 1000 to 10000 nM.

Consider `COC(=O)c1c(N)sc(C(=O)Nc2ccc(C)cc2C)c1Br` [Compound 23, methyl 2-amino-4-bromo-5-[(2,4-dimethylphenyl)carbamoyl]thiophene-3-carboxylate], for which the EC50 is less than 1000 nM.

For `COC(=O)c1c(N)sc(C(=O)Cc2ccc(C)cc2C)c1C` [Compound 24, methyl 2-amino-5-[(2,4-dimethylphenyl)acetyl]-4-methylthiophene-3-carboxylate], the EC50 was 1000 to 10000 nM.

For `CCOC(=O)c1c(N)sc(C(=O)Nc2ccc(C)cc2C)c1C` [Compound 25, Ethyl 2-amino-5-[(2,4-dimethylphenyl)carbamoyl]-4-methylthiophene-3-carboxylate], the EC50 is less than 1000 nM.

As for `CCOC(=O)c1cccc(NC(=O)c2sc(N)c(C(=O)OCC)c2C)c1` [Compound 26, Ethyl 2-amino-5-{[3-(ethoxycarbonyl)phenyl]carbamoyl}-4-methylthiophene-3-carboxylate], the EC50 was in the range of 1000 to 10000 nM.

In the case of `Cc1ccc(NC(=O)c2sc(N)c(C(=O)O)c2C)c(C)c1` [Compound 27, 2-amino-5-[(2,4-dimethylphenyl)carbamoyl]-4-methylthiophene-3-carboxylic acid], the EC50 is less than 1000 nM.

Regarding `Cc1ccc(NC(=O)c2sc(N)c(C(=O)NCC#N)c2C)c(C)c1` [Compound 28, 5-amino-N^4-(cyanomethyl)-N^2-(2,4-dimethylphenyl)-3-methylthiophene-2,4-dicarboxamide], the EC50 was 1000 to 10000 nM.

In the case of `Cc1ccc(NC(=O)c2sc(N)c(C(=O)CO)c2C)c(C)c1` [Compound 29, 5-amino-N-(2,4-dimethylphenyl)-4-(hydroxyacetyl)-3-methylthiophene-2-carboxamide], the EC50 is less than 1000 nM.

`CC(=O)c1c(N)sc(C(=O)Nc2ccc(C)cc2C)c1C` [Compound 30, 4-acetyl-5-amino-N-(2,4-dimethylphenyl)-3-methylthiophene-2-carboxamide]: the EC50 is less than 1000 nM.

For `CC(=O)c1c(N)sc(C(=O)Nc2ccccc2)c1C` [Compound 31, 4-Acetyl-5-amino-3-methyl-N-phenylthiophene-2-carboxamide], the EC50 was less than 1000 nM.

For the compound `CC(=O)c1c(N)sc(C(=O)Nc2ccc(F)cc2)c1C` [Compound 32, 4-Acetyl-5-amino-N-(4-fluorophenyl)-3-methylthiophene-2-carboxamide], the EC50 was less than 1000 nM.

Turning to `COC(=O)c1c(NC(C)=O)sc(C(=O)Nc2ccc(C)cc2C)c1C` [Compound 33], the EC50 is 1000 to 10000 nM.

Take `Cc1ccc(NC(=O)c2sc(N)c(C(=O)OC(C)(C)C)c2C)c(C)c1` [Compound 34, tert-Butyl 2-amino-5-[(2,4-dimethylphenyl)carbamoyl]-4-methylthiophene carboxylate]: the EC50 fell in the range of 1000 to 10000 nM.

Turning to `COC(=O)c1c(N)sc(C(=O)Nc2ccccc2OC)c1C` [Compound 35, Methyl 2-amino-5-[(2-methoxyphenyl)carbamoyl]-4-methylthiophene-3-carboxylate], the EC50 lay in the range of 1000 to 10000 nM.

By EC50 is commonly meant the concentration needed to bring the measured effect to its halfway point.
